These results are taken from article PMC7792996, “Crystal structure of death-associated protein kinase 1 in complex with the dietary compound resveratrol” (IUCrJ, 2021).

The target of experiment [1] is T1, Death-associated protein kinase 1 (DAPK1) (Homo sapiens, UniProt P53355).
T1 construct: catalytic domain, residues 1–285
As to the kind of experiment: fluorescent probe saturation binding (BC50), competed by RSV.

The target of experiment [2] is T1, Death-associated protein kinase 1 (DAPK1). Briefly: malachite green intrinsic ATPase assay at […] ATP. It is filed as biochemical.

T1 sequence (P53355 1-285): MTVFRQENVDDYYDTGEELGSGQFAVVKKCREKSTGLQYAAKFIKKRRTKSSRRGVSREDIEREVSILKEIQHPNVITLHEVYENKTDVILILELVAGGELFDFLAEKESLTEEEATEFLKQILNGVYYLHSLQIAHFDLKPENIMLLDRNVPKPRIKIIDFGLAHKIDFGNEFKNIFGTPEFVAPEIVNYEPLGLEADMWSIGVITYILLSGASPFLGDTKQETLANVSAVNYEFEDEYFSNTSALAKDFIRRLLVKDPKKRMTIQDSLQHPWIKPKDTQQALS

A word on the Kd: it is the equilibrium constant for the complex coming apart. With `O=S(=O)(O)c1cccc2cccc(Nc3ccccc3)c12` [ANS, 8-anilinonaphthalene-1-sulfonic acid], in experiment [1], the Kd is 7.3 µM.
In the case of `O=c1c(O)c(-c2ccc(O)cc2)oc2cc(O)cc(O)c12` [KAE, kaempferol], the “malachite green intrinsic ATPase assay at 30 μM ATP” value in experiment [2] was “The inhibitory potency of KAE was higher than that of API”.
